Laboratory results as given in publication PMC6325233, “A Novel Actin Binding Drug with In Vivo Efficacy” (Antimicrobial Agents and Chemotherapy, 2018).
Converted amounts (≈) assume the structure as drawn. Read-outs that look alike come from different tables or passages of the source.

Legend:
[1] = system: Trichophyton mentagrophytes 10207; assay: MIC susceptibility testing (itraconazole-resistant strain); format: cell-based; settings: Trichophyton mentagrophytes, 10207, CLSI M38-A2
Experimental: (§1) Occidiofungin was purified from a liquid culture of Burkholderia contaminans MS14 as previously described ([21]). MIC susceptibility testing was performed according to the CLSI M27-A3 and M38-A2 standards for the susceptibility testing of yeasts and filamentous fungi, respectively. S. cerevisiae deletion mutants were obtained from the commercially available BY4741 deletion library (Thermo Scientific).

[2] = system: Trichophyton rubrum 11199; assay: MIC susceptibility testing (terbinafine-resistant strain); format: cell-based; settings: Trichophyton rubrum, 11199, CLSI M38-A2
Experimental: as §1

Candida albicans 28200 = assay: MIC susceptibility testing; format: cell-based; settings: Candida albicans, 28200; CLSI M27-A3; read-out: Fluconazole MIC
Experimental: as §1

Candida glabrata 28271 = assay: MIC susceptibility testing; format: cell-based; settings: Nakaseomyces glabratus, 28271, read-out: Fluconazole MIC
Experimental: as §1

Candida krusei 28570 = assay: MIC susceptibility testing; format: cell-based; settings: Pichia kudriavzevii, 28570; CLSI M27-A3; read-out: Fluconazole MIC
Experimental: as §1

[3] = system: Candida parapsilosis 28364; assay: MIC susceptibility testing; format: cell-based; settings: Lodderomyces parapsilosis, 28364; CLSI M27-A3; read-out: Fluconazole MIC
Experimental: as §1

Candida tropicalis 28272 = assay: MIC susceptibility testing; format: cell-based; settings: Candida tropicalis, 28272; CLSI M27-A3; read-out: Fluconazole MIC
Experimental: as §1

Candida tropicalis 28478 = assay: MIC susceptibility testing; format: cell-based; settings: Candida tropicalis, 28478; CLSI M27-A3; read-out: Fluconazole MIC
Experimental: as §1

[4] = system: Trichophyton mentagrophytes 28556; assay: MIC susceptibility testing; format: cell-based; settings: Trichophyton mentagrophytes, 28556, CLSI M38-A2
Experimental: as §1

[5] = system: Trichophyton mentagrophytes 28641; assay: MIC susceptibility testing; format: cell-based; settings: Trichophyton mentagrophytes, 28641, CLSI M38-A2
Experimental: as §1

[6] = system: Trichophyton rubrum 28658; assay: MIC susceptibility testing; format: cell-based; settings: Trichophyton rubrum, 28658, CLSI M38-A2
Experimental: as §1

[7] = system: Trichophyton rubrum 28659; assay: MIC susceptibility testing; format: cell-based; settings: Trichophyton rubrum, 28659, CLSI M38-A2
Experimental: as §1

Candida albicans 28102 = assay: MIC susceptibility testing; format: cell-based; settings: Candida albicans, 28102; CLSI M27-A3; read-out: Fluconazole MIC
Experimental: as §1

Candida glabrata 25742 = assay: MIC susceptibility testing; format: cell-based; settings: Nakaseomyces glabratus, 25742; CLSI M27-A3; read-out: Fluconazole MIC
Experimental: as §1

Candida krusei 9541 = assay: MIC susceptibility testing; format: cell-based; settings: Pichia kudriavzevii, 9541; CLSI M27-A3; read-out: Fluconazole MIC
Experimental: as §1

[8] = system: Candida parapsilosis 28174; assay: MIC susceptibility testing; format: cell-based; settings: Lodderomyces parapsilosis, 28174; CLSI M27-A3; read-out: Fluconazole MIC
Experimental: as §1

Candida tropicalis 9624 = assay: MIC susceptibility testing; format: cell-based; settings: Candida tropicalis, 9624; CLSI M27-A3; read-out: Fluconazole MIC
Experimental: as §1

[9] = system: Cryptococcus neoformans 27708; assay: MIC susceptibility testing; format: cell-based; settings: Cryptococcus neoformans, 27708; CLSI M27-A3; read-out: Fluconazole MIC
Experimental: as §1

[10] = system: Cryptococcus neoformans 28446; assay: MIC susceptibility testing; format: cell-based; settings: Cryptococcus neoformans, 28446; CLSI M27-A3; read-out: Fluconazole MIC
Experimental: as §1

Candida albicans 23512 = assay: MIC susceptibility testing (fluconazole-resistant strain); format: cell-based; settings: Candida albicans, 23512; CLSI M27-A3
Experimental: as §1

Candida glabrata 27243 = assay: as above; format: cell-based; settings: Nakaseomyces glabratus, 27243; CLSI M27-A3
Experimental: as §1

Candida krusei 28415 = assay: as above; format: cell-based; settings: Pichia kudriavzevii, 28415; CLSI M27-A3
Experimental: as §1

[11] = system: Candida parapsilosis 2006; assay: MIC susceptibility testing (caspofungin-resistant strain); format: cell-based; settings: Lodderomyces parapsilosis, 2006; CLSI M27-A3; read-out: Fluconazole MIC
Experimental: as §1

[12] = system: Cryptococcus neoformans 19526; assay: as above; format: cell-based; settings: Cryptococcus neoformans, 19526; CLSI M27-A3; read-out: Fluconazole MIC
Experimental: as §1

[13] = target: rabbit skeletal muscle filamentous actin (F-actin) (rabbit) (UniProt P68135); assay: co-sedimentation; F-actin 200 nM; occidiofungin 25 to 25,600 nM or phalloidin 25 to 800 nM; 5 mM Tris-HCl pH 8.0, 0.2 mM ATP, 2 mM MgCl2; 30 min at room temperature; 100,000 rpm, 4°C, 20 min; free and bound ligand quantified by mass spectrometry; Langmuir isotherm; macroscopic Kd
[14] = system: Candida albicans strain ATCC 66027; settings: cited from earlier work
Experimental: Therefore, additional studies related to the perturbation of actin-based functions were performed to confirm that actin was the biological target of occidiofungin. As a dimorphic fungus, C. albicans can grow as a yeast or hypha, and the ability to switch between these forms is linked to the pathogenicity of the organism ([29]). Several reports have established that actin cables play an important role in the switch between yeast and hyphal forms ([30], [31]). The impact of ...

[15] = system: Aspergillus fumigatus 28436; assay: MIC susceptibility testing; format: cell-based; settings: Aspergillus fumigatus, 28436; CLSI M38-A2; read-out: Voriconazole MIC
Experimental: as §1

Fusarium solani 18749 = assay: MIC susceptibility testing; format: cell-based; settings: Fusarium solani, 18749; CLSI M38-A2; read-out: Voriconazole MIC
Experimental: as §1

[16] = system: Mucor circinelloides 19445; assay: MIC susceptibility testing; format: cell-based; settings: Mucor circinelloides, 19445; CLSI M38-A2; read-out: Voriconazole MIC
Experimental: as §1

Aspergillus flavus 28445 = assay: MIC susceptibility testing; format: cell-based; settings: Aspergillus flavus, 28445; CLSI M38-A2; read-out: Voriconazole MIC
Experimental: as §1

Aspergillus flavus 28455 = assay: MIC susceptibility testing; format: cell-based; settings: Aspergillus flavus, 28455; CLSI M38-A2; read-out: Voriconazole MIC
Experimental: as §1

Aspergillus flavus 28517 = assay: MIC susceptibility testing; format: cell-based; settings: Aspergillus flavus, 28517; CLSI M38-A2; read-out: Voriconazole MIC
Experimental: as §1

[17] = system: Aspergillus fumigatus 28434; assay: MIC susceptibility testing; format: cell-based; settings: Aspergillus fumigatus, 28434; CLSI M38-A2; read-out: Voriconazole MIC
Experimental: as §1

[18] = system: Aspergillus fumigatus 28435; assay: MIC susceptibility testing; format: cell-based; settings: Aspergillus fumigatus, 28435; CLSI M38-A2; read-out: Voriconazole MIC
Experimental: as §1

Fusarium oxysporum 27718 = assay: MIC susceptibility testing; format: cell-based; settings: Fusarium oxysporum, 27718; CLSI M38-A2; read-out: Voriconazole MIC
Experimental: as §1

Fusarium solani 28386 = assay: MIC susceptibility testing; format: cell-based; settings: Fusarium solani, 28386; CLSI M38-A2; read-out: Voriconazole MIC
Experimental: as §1

Mucor fragilis 27782 = assay: MIC susceptibility testing; format: cell-based; settings: Mucor fragilis, 27782; CLSI M38-A2; read-out: Voriconazole MIC
Experimental: as §1

Mucor racemosus 27784 = assay: MIC susceptibility testing; format: cell-based; settings: Mucor racemosus, 27784; CLSI M38-A2; read-out: Voriconazole MIC
Experimental: as §1

[19] = system: Rhizopus microsporus 27785; assay: MIC susceptibility testing; format: cell-based; settings: Rhizopus microsporus, 27785; CLSI M38-A2; read-out: Voriconazole MIC
Experimental: as §1

[20] = system: Rhizopus microsporus 28506; assay: MIC susceptibility testing; format: cell-based; settings: Rhizopus microsporus, 28506; CLSI M38-A2; read-out: Voriconazole MIC
Experimental: as §1

Rhizopus oryzae 28403 = assay: MIC susceptibility testing; format: cell-based; settings: Rhizopus arrhizus, 28403; CLSI M38-A2; read-out: Voriconazole MIC
Experimental: as §1

[21] = target: rabbit skeletal muscle filamentous actin (F-actin) (rabbit) (UniProt P68135); assay: co-sedimentation

OC(Cn1cncn1)(Cn1cncn1)c1ccc(F)cc1F [Fluconazole, fluconazole, reference compound]
MIC ([1]; read-out: Fluconazole MIC): > 16 µg/mL | MIC ([2]; read-out: Fluconazole MIC): 0.25 µg/mL (≈ 0.816 µM) | MIC (Candida albicans 28200): 8 µg/mL (≈ 26.1 µM) | MIC (Candida glabrata 28271): > 64 µg/mL | MIC (Candida krusei 28570): 16 µg/mL (≈ 52.2 µM) | MIC [3]: 0.25 µg/mL (≈ 0.816 µM) | MIC (Candida tropicalis 28272): 0.125 µg/mL (≈ 0.408 µM) | MIC (Candida tropicalis 28478): 0.125 µg/mL (≈ 0.408 µM) | MIC ([4]; read-out: Fluconazole MIC): > 16 µg/mL | MIC ([5]; read-out: Fluconazole MIC): 16 µg/mL (≈ 52.2 µM) | MIC ([6]; read-out: Fluconazole MIC): 2 µg/mL (≈ 6.53 µM) | MIC ([7]; read-out: Fluconazole MIC): 2 µg/mL (≈ 6.53 µM) | MIC (Candida albicans 28102): 0.125 µg/mL (≈ 0.408 µM) | MIC (Candida glabrata 25742): 4 µg/mL (≈ 13.1 µM) | MIC (Candida krusei 9541): 16 µg/mL (≈ 52.2 µM) | MIC [8]: 0.25 µg/mL (≈ 0.816 µM) | MIC (Candida tropicalis 9624): 0.25 µg/mL (≈ 0.816 µM) | MIC [9]: 2 µg/mL (≈ 6.53 µM) | MIC [10]: 4 µg/mL (≈ 13.1 µM) | MIC (Candida albicans 23512): 32 µg/mL (≈ 104 µM) | MIC (Candida glabrata 27243): 64 µg/mL (≈ 209 µM) | MIC (Candida krusei 28415): 64 µg/mL (≈ 209 µM) | MIC [11]: 0.125 µg/mL (≈ 0.408 µM) | MIC [12]: 4 µg/mL (≈ 13.1 µM)

Phalloidin (peptide)
Kd [13]: 8 nM | stoichiometry N (phalloidin per actin monomer) [13]: 0.6

C=C1[C@@H](C)[C@H]2[C@H](Cc3ccccc3)NC(=O)[C@]23OC(=O)/C=C/C(=O)CCC[C@@H](C)C/C=C/[C@H]3[C@@H]1O [cytochalasin A]
effect on hyphal formation [14]: prevent hyphal formation

C[C@@H](c1ncncc1F)[C@](O)(Cn1cncn1)c1ccc(F)cc1F [Voriconazole, voriconazole, reference compound]
MIC ([1]; read-out: Voriconazole MIC): 0.25 µg/mL (≈ 0.716 µM) | MIC ([2]; read-out: Voriconazole MIC): 0.008 µg/mL (≈ 0.0229 µM) | MIC [15]: 1 µg/mL (≈ 2.86 µM) | MIC (Fusarium solani 18749): > 16 µg/mL | MIC [16]: > 16 µg/mL | MIC ([4]; read-out: Voriconazole MIC): 0.06 µg/mL (≈ 0.172 µM) | MIC ([5]; read-out: Voriconazole MIC): 0.06 µg/mL (≈ 0.172 µM) | MIC ([6]; read-out: Voriconazole MIC): 0.03 µg/mL (≈ 0.0859 µM) | MIC ([7]; read-out: Voriconazole MIC): 0.03 µg/mL (≈ 0.0859 µM) | MIC (Aspergillus flavus 28445): 2 µg/mL (≈ 5.73 µM) | MIC (Aspergillus flavus 28455): 2 µg/mL (≈ 5.73 µM) | MIC (Aspergillus flavus 28517): 1 µg/mL (≈ 2.86 µM) | MIC [17]: 1 µg/mL (≈ 2.86 µM) | MIC [18]: 1 µg/mL (≈ 2.86 µM) | MIC (Fusarium oxysporum 27718): > 16 µg/mL | MIC (Fusarium solani 28386): > 16 µg/mL | MIC (Mucor fragilis 27782): > 16 µg/mL | MIC (Mucor racemosus 27784): > 16 µg/mL | MIC [19]: > 16 µg/mL | MIC [20]: 16 µg/mL (≈ 45.8 µM) | MIC (Rhizopus oryzae 28403): > 16 µg/mL

C/C1=C/C(=O)O[C@@H]2C[C@@H](CC[C@H](C)/C=C\C=C\CC1)O[C@@](O)([C@@H]1CSC(=O)N1)C2 [latrunculin A]
effect on hyphal formation [14]: prevent hyphal formation

Occidiofungin (peptide)
Kd [21]: 1000 nM | stoichiometry N (occidiofungin per actin monomer) [21]: 24
